Key:
[1] = system: patients with relapsing multiple sclerosis; test: Phase 2b trial: incidence of MS relapse during placebo run-out after tolebrutinib; assay type: in vivo, human
Excerpt: Unscheduled assessment visits for a suspected multiple sclerosis relapse: Participants are instructed to immediately report new neurological symptoms and recurring or worsening of previous symptoms to the Investigator. Any reported symptoms are to be collected. If a participant reports symptoms that may be consistent with relapse, an unscheduled assessment visit with the Investigator is scheduled as soon as possible (whenever possible within 7 days of onset of the symptoms). The Investigator assesses whether the reported episode is consistent with the definition of MS relapse (see Example 1.6B). If it is consistent with the definition of MS relapse or if there is any doubt and relapse cannot be ruled out, an EDSS assessment should be performed. Unscheduled visit activities are detailed in SoA (Table 1), they need to be adapted, if other pathology than MS is cause for it, and additional examinations or laboratory tests are needed for safety follow up and optimal treatment decisions.
Multiple sclerosis relapse: For the purposes of this study, MS relapse is defined as acute, new neurological symptoms or worsening of previous neurological symptoms with an objective change on neurological examination. Symptoms must: • Be attributable to MS • Last for >24 hours, and • Be present at normal body temperature (i.e., no infection, excessive exercise, or excessively high ambient temperature)
METHODS: As described in Examples 1 and 2, the 16-week, double-blind, crossover trial randomized 130 patients with RMS (1:1:1:1) to tolebrutinib 5, 15, 30, or 60 mg/day. […]
OUTCOMES: The outcomes evaluated in this example include measuring the incidence of relapse during 4-week placebo run-in and run-out, the number of new Gd-enhancing T1 lesions detected with magnetic resonance imaging (MRI) at Weeks 4, 8 and 16, the number of new or enlarging T2 lesions measured at Weeks 4, 8 and 16, and the plasma CD19+B-cell count measured in the placebo run-out cohort at baseline, 1 hour after the first dose, then at Week 12 and Week 16 (FIG. 3).

[2] = system: patients with relapsing multiple sclerosis; test: Phase 2b dose-finding study: number of new or enlarging T2 lesions by brain MRI; conditions: for Number of new/enlarging T2 lesions, mean (SD): Cohort 1 (all doses)
Description: (§1) New T1 Gd-enhancing hyperintense and new and enlarging T2 lesions are evaluated at each visit as per the SoA (Table 1), comparing lesion count to that from the previous MRI scan. Unless specified otherwise, the baseline brain MRI is used as the reference to assess all MRI-derived endpoints. The baseline MRI is the last MRI performed before the randomization visit. Standardized endpoint evaluation is assured by central review of brain MRI scans. Blinded central review is performed for all MRI-derived endpoints. Magnetic resonance imaging reviewers are blinded to treatment assignments and to other participant data.
For the number of new or enlarging T2 lesions, descriptive summary statistics over time (4, 8, 12, and 16 weeks) is provided for each of the 4 BTK inhibitor doses. Further, a similar MCP-Mod approach is explored if it is deemed reasonable to extrapolate the Week 4 data from Cohort 2 to the Week 12 placebo data.
(§2) For each secondary endpoint, a similar negative binomial model and the MCP-Mod procedure were used. As it is reasonable to assume a constant rate of lesion formation over 12 weeks under placebo treatment, the same approach as that utilized for the primary endpoint was used, i.e., using the Week 4 data in Cohort 2 as the Week 12 placebo data while accounting for within-participant correlation. Descriptive summary statistics over time were provided for each of the 4 BTK inhibitor dose groups.
Magnetic resonance imaging (MRI) scans were obtained at screening and every 4 weeks for 16 weeks.

[3] = system: patients with relapsing multiple sclerosis; test: Phase 2b dose-finding study: total number of Gd-enhancing T1-hyperintense lesions by brain MRI; conditions: for Count of Gd-enhancing T1-hyperintense lesions, observed mean (SD): 12 weeks of treatment
Description: as §1
As it is reasonable to assume a constant rate of lesion formation over 12 weeks under placebo for total number of Gd-enhancing T1-hyperintense lesions, the same approach as that utilized for the primary endpoint is used, by using the Week 4 data in Cohort 2 as the Week 12 placebo data while accounting for the within-participant correlation. Descriptive summary statistics over time is provided for each of the 4 BTK inhibitor doses.
as §2

[4] = system: CYP3A; test: Preclinical drug metabolism studies: CYP3A; assay type: in vitro ADME
Excerpt: See Table 12 for the list of drugs not to be used.

[5] = system: patients with relapsing multiple sclerosis; test: Phase 2b dose-finding study: number of new Gd-enhancing T1-hyperintense lesions by brain MRI; conditions: for New Gd-enhancing T1-hyperintense lesion count, observed mean (SD): 12 weeks of treatment, Cohorts 1 and 2 pooled; for Patients with no new Gd-enhancing T1 lesions / Gd-enhancing T1 lesion count, mean (SD): Cohort 1 (all doses); for Gd+ lesion count, mean (SD): Cohort 1, 60 mg/day
Description: Cranial (brain) MRI with and without Gd contrast is performed. Basic MRIs are performed for all participants at all study sites and consist of T2- and T1-weighted sequences without and with Gd contrast.
as §1
The first step of this procedure tests for an efficacy signal (compared to the null hypothesis of a flat, no dose-response curve) in a procedure that controls the type 1 error. […] The second step is the Dose estimation of the dose-response curve, provided that an efficacy signal is established in the first step.
The 4-week post-randomization placebo data from Cohort 2 (i.e., Week 4 data from Cohort 2) is utilized as the placebo data at Week 12 in analysis, under the assumption of a constant rate of Gd-enhancing T1-hyperintense lesion formation if participants would be receiving placebo over 12 weeks. Participants in Cohort 2 contribute to the placebo data (at Week 4) as well as the data for 4 BTK inhibitor doses (at Week 16). […] If step 1 yields significant results, the best fitting model from the 6 predefined candidate models is chosen using the generalized Akaike information criterion (AIC).
The first step of this procedure tested for an efficacy signal (compared to the null hypothesis of a flat, no dose-response curve) in a procedure that controls the type 1 error.
The MRI assessments were excluded from the analyses if the participant was receiving systemic corticosteroids within the 30 days prior to the MRI assessment date. The 4-week post-randomization placebo data from Cohort 2 (i.e., Week 4 data from Cohort 2) was utilized as the placebo data at Week 12 in analysis under the assumption of a constant rate of Gd-enhancing T1-hyperintense lesion formation if participants were to receive placebo over 12 weeks. Participants in Cohort 2 contributed to the placebo data (at Week 4) as well as the data for 4 BTK inhibitor doses (at Week 16). The 4-week placebo run-out data from Cohort 1 was not included in the analysis. […] Test statistics and adjusted p-values were provided for all 6 candidate models.

[6] = system: patients with relapsing multiple sclerosis; test: Long-term safety extension: number of new or enlarging T2 lesions (MRI); assay type: in vivo, human
Description: In the current open-label extension Part B, all patients receive 60 mg/day. MRI outcomes include numbers of new Gd-enhancing and new/enlarging T2 lesions, T2 lesion volume change from baseline, slowly evolving lesions (SEL), and paramagnetic rim lesions (PRL).
The Week 0 value is from the last MRI obtained in the dose-finding study if performed within 6 weeks prior to Day 1 of the long-term safety study For some patients the Week 0 value began after a gap period ranging from 0-21 weeks. For patients where the gap period was 0 weeks, the Week 0 value began immediately after the completion of Week 16 of the dose-finding study. For patients where the gap period was greater than 6 weeks a new MRI was obtained prior to Day 1 of the long-term safety study.
If from Week 16 of the dose-finding study (Cohort 2), it is also included in Week 12. If from Week 16 of the dose-finding study (Cohort 1), it is after 4 weeks placebo run out.

[7] = Cohort 1 (all doses), 4-week placebo run-out after 12 weeks of tolebrutinib
[8] = 5 mg daily, after 12 weeks of treatment
[9] = 15 mg daily, after 12 weeks of treatment
[10] = 30 mg daily, after 12 weeks of treatment
[11] = 60 mg daily, after 12 weeks of treatment
[12] = 60 mg, end of 12 weeks of treatment, 27 of 31 with evaluable MRI
[13] = after 4 weeks of placebo run-out

## C=CC(=O)N1CCC[C@@H](n2c(=O)n(-c3ccc(Oc4ccccc4)cc3)c3c(N)nccc32)C1 [the BTK inhibitor, (R)-1-(1-acryloylpiperidin-3-yl)-4-amino-3-(4-phenoxyphenyl)-1H-imidazo[4,5-c]pyridin-2(3H)-one]
[1]; [7]
  Patients relapse-free during the placebo run-out: 98.4%
  Relapses during the placebo run-out: 1
[1]; patients with RMS, 4-week placebo run-out, preliminary findings
  Rebound disease activity after discontinuation: does not induce rebound disease activity
[2]; [8]
  New or enlarging T2 lesion count, Mean: 1.90
  New or enlarging T2 lesion count, Median: 0.00
[2]; 5 mg once daily, end of 12 weeks of treatment
  Count of new and enlarging T2 lesions, observed mean (SD): 1.90 (3.97)
[2]; [9]
  New or enlarging T2 lesion count, Mean: 1.32
  New or enlarging T2 lesion count, Median: 1.00
[2]; 15 mg once daily, end of 12 weeks of treatment
  Count of new and enlarging T2 lesions, observed mean (SD): 1.32 (1.83)
[2]; [10]
  New or enlarging T2 lesion count, Mean: 1.30
  New or enlarging T2 lesion count, Median: 0.00
[2]; 30 mg once daily, end of 12 weeks of treatment
  Count of new and enlarging T2 lesions, observed mean (SD): 1.30 (4.90)
[2]; [11]
  New or enlarging T2 lesion count, Mean: 0.23
  New or enlarging T2 lesion count, Median: 0.00
  Patients with >=3 new or enlarging T2 lesions: 0 n
[2]; 60 mg once daily, end of 12 weeks of treatment
  Count of new and enlarging T2 lesions, observed mean (SD): 0.23 (0.62)
[2]; 60 mg, 12 weeks, 95% CI [68.39%, 96.41%], nominal p=0.0001
  Adjusted relative reduction in count of new and enlarging T2 lesions relative to placebo: 89.34%
[2]; [12]
  Participants with no new and enlarging T2 lesions: 87.1%
[2]; Week 12
  Number of new/enlarging T2 lesions, mean (SD): 0.58 (1.27)
[2]; [13]
  Number of new/enlarging T2 lesions, mean (SD): 0.95 (2.72)
[3]; [8]
  Total Gd-enhancing T1-hyperintense lesion count, Mean: 1.77
  Total Gd-enhancing T1-hyperintense lesion count, Median: 0.00
[3]; 5 mg once daily
  Count of Gd-enhancing T1-hyperintense lesions, observed mean (SD): 1.77 (4.10)
[3]; [9]
  Patients with 2 total Gd-enhancing T1-hyperintense lesions: 0 n
  Total Gd-enhancing T1-hyperintense lesion count, Mean: 0.87
  Total Gd-enhancing T1-hyperintense lesion count, Median: 0.00
[3]; 15 mg once daily
  Count of Gd-enhancing T1-hyperintense lesions, observed mean (SD): 0.87 (1.59)
[3]; [10]
  Total Gd-enhancing T1-hyperintense lesion count, Mean: 1.18
  Total Gd-enhancing T1-hyperintense lesion count, Median: 0.00
[3]; 30 mg once daily
  Count of Gd-enhancing T1-hyperintense lesions, observed mean (SD): 1.18 (4.87)
[3]; [11]
  Total Gd-enhancing T1-hyperintense lesion count, Mean: 0.29
  Total Gd-enhancing T1-hyperintense lesion count, Median: 0.00
[3]; 60 mg once daily
  Count of Gd-enhancing T1-hyperintense lesions, observed mean (SD): 0.29 (0.86)
[3]; [12]
  Participants with no Gd-enhancing T1-hyperintense lesions: 87.1%
[3]; any of the doses tested (5, 15, 30, 60 mg), 12 weeks
  Relative reduction in total count of Gd-enhancing T1-hyperintense lesions relative to placebo: No statistically significant relative reduction
[4]
  Substrate of CYP3A isoenzyme: substrate
[5]; [8]
  New Gd-enhancing T1-hyperintense lesion count, Mean: 1.39
  New Gd-enhancing T1-hyperintense lesion count, Median: 0.00
[5]; 5 mg once daily
  New Gd-enhancing T1-hyperintense lesion count, observed mean (SD): 1.39 (3.20)
[5]; [9]
  New Gd-enhancing T1-hyperintense lesion count, Mean: 0.77
  New Gd-enhancing T1-hyperintense lesion count, Median: 0.00
[5]; 15 mg once daily
  New Gd-enhancing T1-hyperintense lesion count, observed mean (SD): 0.77 (1.48)
[5]; [10]
  New Gd-enhancing T1-hyperintense lesion count, Mean: 0.76
  New Gd-enhancing T1-hyperintense lesion count, Median: 0.00
[5]; 30 mg once daily
  New Gd-enhancing T1-hyperintense lesion count, observed mean (SD): 0.76 (3.31)
[5]; [11]
  New Gd-enhancing T1-hyperintense lesion count, Mean: 0.13
  New Gd-enhancing T1-hyperintense lesion count, Median: 0.00
  Patients with >=3 new Gd-enhancing T1-hyperintense lesions: 0 n
[5]; 60 mg once daily
  New Gd-enhancing T1-hyperintense lesion count, observed mean (SD): 0.13 (0.43)
[5]; 60 mg, 12 weeks, negative binomial regression model adjusted for baseline lesion activity, 95% CI [28.02%, 96.88%], nominal p=0.0178
  Relative reduction in new Gd-enhancing T1-hyperintense lesions compared with placebo: 85.02%
[5]; 60 mg, end of 12 weeks of treatment, 28 of 31 with evaluable MRI
  Participants with no new Gd-enhancing T1-hyperintense lesions: 90.30%
[5]; 5-60 mg once daily, after 12 weeks of treatment, MCP-Mod
  Dose-response for reduction in number of new active Gd-enhancing T1-hyperintense brain lesions: dose-response relationship
[5]; 4 weeks after discontinuing tolebrutinib (placebo run-out)
  Patients with no new Gd-enhancing T1 lesions: 85.2%
[5]; [13]
  Gd-enhancing T1 lesion count, mean (SD): 0.44 (1.70)
  Gd+ lesion count, mean (SD): 0.31 (0.70)
[5]; after 12 weeks of tolebrutinib
  Gd-enhancing T1 lesion count, mean (SD): 0.37 (0.99)
  Gd+ lesion count, mean (SD): 0.20 (0.56)
[5]; after 12 weeks of tolebrutinib treatment
  Patients with no new Gd-enhancing T1 lesions: 83.3%
[6]; 5/60 mg, Week 0
  Number of new or enlarging T2 lesions, Mean (SD): 3.97 (8.47)
  Number of new or enlarging T2 lesions, Median: 0.00
[6]; 5/60 mg, Week 12
  Number of new or enlarging T2 lesions, Mean (SD): 1.68 (3.49)
  Number of new or enlarging T2 lesions, Median: 0.00
[6]; 15/60 mg, Week 0
  Number of new or enlarging T2 lesions, Mean (SD): 3.52 (6.51)
  Number of new or enlarging T2 lesions, Median: 1.00
[6]; 15/60 mg, Week 12
  Number of new or enlarging T2 lesions, Mean (SD): 1.32 (1.83)
  Number of new or enlarging T2 lesions, Median: 1.00
[6]; 30/60 mg, Week 0
  Number of new or enlarging T2 lesions, Mean (SD): 3.41 (7.32)
  Number of new or enlarging T2 lesions, Median: 0.00
[6]; 30/60 mg, Week 12
  Number of new or enlarging T2 lesions, Mean (SD): 1.34 (4.97)
  Number of new or enlarging T2 lesions, Median: 0.00
[6]; 60/60 mg, LTS through W96
  New/enlarging T2 lesion counts: remained low
[6]; 60/60 mg, Week 0
  Number of new or enlarging T2 lesions, Mean (SD): 1.10 (1.87)
  Number of new or enlarging T2 lesions, Median: 0.00
[6]; 60/60 mg, Week 12
  Number of new or enlarging T2 lesions, Mean (SD): 0.29 (0.69)
  Number of new or enlarging T2 lesions, Median: 0.00
[6]; All (N = 125), Week 0
  Number of new or enlarging T2 lesions, Mean (SD): 3.00 (6.56)
  Number of new or enlarging T2 lesions, Median: 0.00
[6]; All (N = 125), Week 12
  Number of new or enlarging T2 lesions, Mean (SD): 1.16 (3.21)
  Number of new or enlarging T2 lesions, Median: 0.00

From patent US20260272907A1, “Therapeutic Tyrosine Kinase Inhibitors for Multiple Sclerosis” (Principia Biopharma Inc., priority 2022, published 2026)
